Test results published in patent publication US8158810B2 (Gilead Sciences, Inc., priority 2006, dated 2012).

Key:
Male Sprague-Dawley rats = assay: Cocaine self administration and reinstatement model (cocaine induced relapse); format: in vivo, rat; conditions: for Lever presses (Avg ± Std. error): significantly different from Vehicle, p < 0.05
Experimental: Intravenous cocaine (0.35 mg/kg/inj) was used in an operant self administration and reinstatement model in rats. In this model, rats addicted to cocaine repeatedly pressed a lever to obtain an intravenous dose (iv) of cocaine. When cocaine was removed, rats stopped pressing the lever. However, rats resumed lever pressing for cocaine (reinstatement) if subjected to a small intraperitoneal (ip) dose (10 mg/kg) of cocaine that normally has no effect in naïve animals. This is a valid animal model of relapse in cocaine addicted humans, and tests the ability of compounds of Formula I to block cocaine craving and relapse.
Male Sprague-Dawley rats with jugular vein catheterization were used. Rats were presented with a choice of two levers in the test/training chamber. […] The following day the reinforcer was switched to FR1 lever pressing for cocaine (0.35 mg/kg/inj, delivered in 0.27 sec). […] Daily training sessions for each group lasted 2 hours, or until a subject earned 200 drug infusions, whichever came first. The subjects remained in drug self-administration training mode until acquisition criterion was met (average presses on the active lever varied by <10% over 3 consecutive training days). This typically takes 10-14 days.
For extinction and reinstatement experiments, rats were required to display stable responding (variability not higher than 15% in 2 consecutive sessions) on the FR1 schedule of reinforcement. […] When average responding across three consecutive extinction sessions fell to 15% of responding during maintenance, subjects were tested for reinstatement. In cocaine-experienced animals, reinstatement was primed with a non-contingent injection of cocaine (10 mg/kg ip) immediately before the reinstatement session. In order to increase statistical power and therefore decrease animal usage, a second extinction period was initiated 3-4 days after the first, which allowed for additional within-subjects comparisons. Experiments used a between-session-training and testing method in which animals were trained to self administer drug. Their behavior was then extinguished and then reinstatement was primed on different days.
Animals were trained to self administer cocaine (0.35 mg/kg/inj) until they reached stable responding. They were then trained in the same chambers but cocaine was no longer available.

Wistar-derived male rats = assay: Nicotine self-administration; format: in vivo, rat; conditions: increasing doses (7.5, 10, 15 mg/kg i.p.) 30 minutes prior to session
Experimental: Wistar-derived male rats (250-300 g) were housed in groups of two and maintained in a temperature-controlled environment on a 12 hour: 12 hour light cycle (0600 h on-1800 h off), upon arrival in the laboratory. Animals were given free access to food and water during a one-week habituation period to the laboratory. […] Animals were handled daily for several days to desensitize them to handling stress before experimental testing. The sample sizes (n=8) provided reliable estimates of drug effects.
Mecamylamine was dissolved in 0.09% isotonic saline and administered at a volume of 1 ml/kg.
Food training and nicotine self-administration took place in 8 standard Coulbourn operant chambers. Each chamber was housed in a sound-attenuated box. Operant chambers were equipped with two levers, mounted 2 cm above the floor, and a cue light mounted 2 cm above the right lever on the back wall of the chamber. For food training, a food hopper was located 2-cm to the left/right of either lever, in the middle of the back wall. Intravenous infusions were delivered in a volume of 0.1 ml over a 1 second interval via an infusion pump (Razel, Conn.) housed outside of the sound attenuated chamber.
Initially, rats were restricted to 15 grams of food daily (approximately 85% of their free-feeding body weight). […]

## CS(=O)(=O)Nc1ccc(-c2coc3cc(OCc4cccc(C(=O)O)c4)ccc3c2=O)cc1 [Cmpd A, 3-[(3-{4-[(methylsulfonyl)amino]phenyl}-4-oxochromen-7-yloxy)methyl]-benzoic acid]
Male Sprague-Dawley rats; 7.5 mg/kg prior to cocaine priming dose (10 mg/kg), N = 9
  Lever presses (Avg ± Std. error): 24.94 ± 7.92
Male Sprague-Dawley rats; 10 mg/kg prior to cocaine priming (10 mg/kg) dose, N = 6
  Lever presses (Avg ± Std. error): 19.83 ± 11.30
Male Sprague-Dawley rats; 7.5 and 10 mg/kg prior to the priming injection of cocaine (10 mg/kg)
  lever presses responding after priming injection of cocaine: did not show an increase in their lever presses responding
Male Sprague-Dawley rats; ip injections, rats
  relapse for cocaine: dose dependently blocked relapse for cocaine
Wistar-derived male rats
  number of bar presses (number of infusions) for nicotine administration: reduced the number of bar presses
